Experimental findings from patent US20120302573A1, “METHODS OF INHIBITING PRO MATRIX METALLOPROTEINASE ACTIVATION” (priority 2011, published 2012) are described below.

A word on the Kd: it is the concentration at which binding is half-saturated. A low value points to tighter binding.

Assay [1] addresses T1, proMMP9(20-445;ΔFnII) (SEQ ID NO:6) (Homo sapiens, UniProt P14780, DEL216-390).
T1 construct: amino acid pairs including: 29-215/391-444, 67-215/391-444, and 20-215/391-445, respectively; start methionine (N); made in house; host or cells: E. coli BL21(DE3) RIL
T1 sequence (P14780 with tags, fused parts or gaps DEL216-390): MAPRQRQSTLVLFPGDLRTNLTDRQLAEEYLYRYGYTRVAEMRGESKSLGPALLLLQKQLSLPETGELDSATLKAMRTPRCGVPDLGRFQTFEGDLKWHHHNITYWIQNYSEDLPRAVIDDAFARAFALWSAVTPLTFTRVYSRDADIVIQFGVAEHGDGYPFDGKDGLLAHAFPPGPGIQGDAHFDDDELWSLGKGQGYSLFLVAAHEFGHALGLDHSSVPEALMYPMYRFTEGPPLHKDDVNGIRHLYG
As to the kind of experiment: ThermoFluor binding assay with proMMP9(20-445;ΔFnII). In short, it runs like this: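 Thermal shift with 1,8-ANS dye, heating from 40 to 90 °C at 1 °C/min. Fluorescence excited at 380–400 nm and read at 500±25 nm. Protein was buffer-exchanged by desalting, and binding fitted using heat capacity and thermodynamic parameters from DSC and ThermoFluor dosing data, with DMSO reference wells.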
(Differential scanning fluorimetry follows unfolding on heating by fluorescence.)

Assay [2] has as its target T2, full-length proMMP9(1-707) activation by catalytic MMP3 (Homo sapiens, UniProt P14780, R574P). As to the kind of experiment: proMMP9/MMP3 P126 Activation Assay. It counts as biochemical. Further details: made in house; host or cells: E. coli (MMP3). The note with it: proMMP9 from HEK293 cells.
Protocol: The assay buffer employed was 50 mM Hepes, pH 7.5, 10 mM CaCl2, 0.05% Brij-35. DMSO was included at a final concentration of 2%, arising from the test compound addition. […] The reaction volume was 50 μL. […] Initial velocities were plotted by use of a four-parameter logistics equation (GraphPad Prism® software) for determination of IC50.
Assay [3] concerns the target T3, proMMP9(67-444;ΔFnII) (SEQ ID NO:5) (Homo sapiens, UniProt P14780, DEL216-390).
T3 construct: amino acid pairs including: 29-215/391-444, 67-215/391-444, and 20-215/391-445, respectively; start methionine (N); made in house; host or cells: E. coli BL21(DE3) RIL
T3 sequence (P14780 with tags, fused parts or gaps DEL216-390): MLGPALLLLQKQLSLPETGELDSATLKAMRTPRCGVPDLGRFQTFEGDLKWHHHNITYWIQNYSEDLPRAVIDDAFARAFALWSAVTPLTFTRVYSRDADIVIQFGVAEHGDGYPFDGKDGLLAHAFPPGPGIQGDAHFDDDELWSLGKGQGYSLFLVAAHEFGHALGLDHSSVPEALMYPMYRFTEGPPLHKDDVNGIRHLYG
As to the kind of experiment: ThermoFluor binding assay with proMMP9(67-444;ΔFnII). In short, it runs like this: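 Thermal shift (ThermoFluor) with 1,8-ANS dye; protein desalted by buffer exchange before use. Samples heated 40 to 90 °C at 1 °C/min, excitation 380-400 nm, emission 500±25 nm. Binding fitted using unfolding thermodynamic parameters from DSC and ThermoFluor dosing data.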

For assay [4], the target named is T4, proMMP13(1-268) (SEQ ID NO:7) (Homo sapiens, UniProt P45452).
T4 construct: 6x-histidine tag (C); made in house; host or cells: HEK293
As to the kind of experiment: ThermoFluor binding assay with proMMP13(1-268). Here is the method: The ThermoFluor® (TF) assay is a 384-well plate-based binding assay that measures thermal stability of proteins (Biomol Screen 2001, 6, 429-40; Biochemistry 2005, 44, 5258-66). The experiments were carried out using instruments available from Johnson & Johnson Pharmaceutical Research & Development, LLC. TF dye used in all experiments was […] (1,8-ANS) (Invitrogen: A-47).
Compounds were arranged in a pre-dispensed plate (Greiner Bio-one: 781280), wherein compounds were serially diluted in 100% DMSO across 11 columns within a series. Columns 12 and 24 were used as DMSO reference and contained no compound. For multiple compound concentration-response experiments, the compound aliquots ([…]) were robotically predispensed directly into black 384-well polypropylene PCR microplates (Abgene: TF-0384/k) using a Cartesian Hummingbird liquid handler (DigiLab, Holliston, Mass.). Following compound dispense, protein and dye solutions were added to achieve the final assay volume of 3 μL. The assay solutions were overlayed with 1 μL of silicone oil (Fluka, type DC 200: 85411) to prevent evaporation.
Assay plates were robotically loaded onto a thermostatically controlled PCR-type thermal block and then heated from 40 to 90° C. at a ramp-rate of 1° C./min for all experiments. Fluorescence was measured by continuous illumination with UV light (Hamamatsu LC6) supplied via fiber optics and filtered through a band-pass filter (380-400 nm; >6 OD cutoff). Fluorescence emission of the entire 384-well plate was detected by measuring light intensity using a CCD camera (Sensys, Roper Scientific) filtered to detect 500±25 nm, resulting in simultaneous and independent readings of all 384 wells. A single image with 20-sec exposure time was collected at each temperature, and the sum of the pixel intensity in a given area of the assay plate was recorded vs temperature and fit to standard equations to yield the Tm (J Biomol Screen 2001, 6, 429-40).
Thermodynamic parameters necessary for fitting compound binding for each proMMP were estimated by differential scanning calorimetry (DSC) and from ThermoFluor® data. The heat capacity of unfolding for each protein was estimated from the molecular weight and from ThermoFluor® dosing data.
The proMMP13(1-268) (SEQ ID NO:7) protein sample preparations included a desalting buffer exchange step via a PD-10 gravity column (GE Healthcare). The desalting buffer exchange was performed prior to diluting the protein to the final assay concentration of 3.5 μM. The concentration of proMMP13(1-268) (SEQ ID NO:7) was estimated spectrophotometrically based on a calculated extinction coefficient of ε280=37000 M^−1 cm^−1, a calculated molecular weight of 30.8 kDa, and calculated pI of 5.33. ThermoFluor® reference conditions were defined as follows: 100 μg/mL proMMP13(1-268) (SEQ ID NO:7), 25 μM 1,8-ANS, pH 7.0 Buffer (50 mM HEPES pH 7.0, 100 mM NaCl, 0.001% Tween-20, 2.5 mM MgCl2, 300 μM CaCl2). The thermodynamic parameters for proMMP13(1-268) (SEQ ID NO:7) are as follows: Tm (° C.)=67 (+/−0.1), ΔUH(Tm) (cal mol^−1)=107000(+/−5000), ΔUS(Tm) (cal mol^−1 K^−1)=318, ΔUCp (cal mol^−1 K^−1)=2600.

The target of assay [5] is T2, full-length proMMP9(1-707) activation by catalytic MMP3. As to the kind of experiment: ProMMP9/MMP3 DQ Gelatin Activation Assay.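 Also: readout is fluorescence of quenched fluorescein gelatin cut by activated MMP9, 30 min activation at 37 °C, inhibition relative to DMSO-only controls with EDTA as blank.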 The assay is classed as biochemical. The note with it: proMMP9 from COS-1 cells; read-out: ProMMP9/MMP3 DQ gel, IC50. Further details: made in house; host or cells: COS-1 (proMMP9); E. coli (MMP3).
Assay [6] concerns the target T5, human catalytic MMP3, MMP3(100-265) (Homo sapiens, UniProt P08254).
T5 construct: Catalytic MMP3 was amino acids 100-265 of human MMP3 from UniProtKB/Swiss-Prot P08254; 6x-Histidine tag (C); made in house; host or cells: E. coli
As to the kind of experiment: Catalytic MMP3 enzyme assay (fluorogenic peptide M2110). It counts as biochemical. Here is the method: Compounds were assessed for inhibition of human catalytic MMP3, MMP3(100-265) (SEQ ID NO:8), using a peptide (Mca-RPKPVE-Nva-WRK(Dnp)-NH2, Bachem M2110) that fluoresces upon cleavage by catalytic MMP3. […] The reaction volume was 100 μL. […] Final concentrations employed were 20 nM catalytic MMP3 and 20 μM M2110 substrate.

Where a name gives a salt, the structure may show the parent alone.

T2 sequence (P14780 20-707 R574P): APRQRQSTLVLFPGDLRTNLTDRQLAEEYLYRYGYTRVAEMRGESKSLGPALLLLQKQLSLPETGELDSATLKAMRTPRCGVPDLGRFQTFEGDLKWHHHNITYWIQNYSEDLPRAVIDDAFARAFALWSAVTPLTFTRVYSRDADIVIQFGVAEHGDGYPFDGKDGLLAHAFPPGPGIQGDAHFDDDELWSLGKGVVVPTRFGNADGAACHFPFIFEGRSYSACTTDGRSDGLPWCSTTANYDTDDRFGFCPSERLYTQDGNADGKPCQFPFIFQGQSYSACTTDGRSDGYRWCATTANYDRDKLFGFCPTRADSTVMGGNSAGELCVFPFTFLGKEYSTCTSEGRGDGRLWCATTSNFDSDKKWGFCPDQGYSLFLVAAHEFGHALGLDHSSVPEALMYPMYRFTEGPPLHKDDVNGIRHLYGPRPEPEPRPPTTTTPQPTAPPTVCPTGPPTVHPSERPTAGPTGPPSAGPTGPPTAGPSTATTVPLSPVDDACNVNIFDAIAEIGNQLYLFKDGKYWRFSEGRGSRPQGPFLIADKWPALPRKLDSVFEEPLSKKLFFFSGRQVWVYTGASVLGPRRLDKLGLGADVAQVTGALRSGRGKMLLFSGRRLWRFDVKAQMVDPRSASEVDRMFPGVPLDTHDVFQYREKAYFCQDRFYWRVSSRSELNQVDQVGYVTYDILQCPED
T5 sequence (P08254 with tags, fused parts or gaps): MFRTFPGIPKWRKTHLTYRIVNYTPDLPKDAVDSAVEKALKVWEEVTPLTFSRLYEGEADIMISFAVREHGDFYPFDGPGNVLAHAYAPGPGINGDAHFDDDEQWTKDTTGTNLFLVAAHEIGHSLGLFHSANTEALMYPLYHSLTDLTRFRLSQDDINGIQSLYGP

In the case of `CC(=O)Nc1nc(C)c(-c2csc(Nc3ccccc3OC(C)C)n2)s1` [Example 1, N-[2-(2-Isopropoxy-phenylamino)-4′-methyl-[4,5′]bithiazolyl-2′-yl]-acetamide], the dissociation constant Kd is 8.68 µM in assay [1], 1.29 µM in assay [3] and 14.1 µM in assay [4]. Further, the IC50 in assay [2] is 2.5 µM.

As for `Cc1nc(C)c(-c2csc(Nc3ccccc3OC(C)C)n2)s1` [Example 2, (2′,4′-Dimethyl-[4,5′]bithiazolyl-2-yl)-(2-isopropoxy-phenyl)-amine], the values for the Kd in assay [1], in assay [3] and in assay [4] were above 95 µM, 55.3 µM and 42.5 µM, respectively. In addition, in assay [2], the IC50 was 2.5 µM.

Regarding `COc1ccc(F)cc1Nc1nc(-c2sc(C)nc2C)cs1` [Example 5, (2′,4′-Dimethyl-[4,5′]bithiazolyl-2-yl)-(5-fluoro-2-methoxy-phenyl)-amine.HBr], the Kd was above 95 µM in assay [1], 5.49 µM in assay [3] and 20 µM in assay [4]. Moreover, the IC50 in assay [2] was 0.71 µM.

With `COc1ccc(F)cc1Nc1nc(-c2sc(NC(C)=O)nc2C)cs1` [Example 6], the figures for the Kd in assay [1], in assay [3] and in assay [4] were 0.907 µM, 0.156 µM and 15.1 µM, respectively. This compound also came in with an IC50 in assay [2] of 0.65 µM.

`CC(=O)Nc1nc(C)c(-c2csc(Nc3cc(F)ccc3OC(C)C)n2)s1` [Example 12, N-[2-(5-Fluoro-2-isopropoxy-phenylamino)-4′-methyl-[4,5′]bithiazolyl-2′-yl]-acetamide]: the dissociation constant (Kd) in assay [1] turned out to be 13.8 µM; in assay [3], 2.92 µM; in assay [4], 12 µM. Also, the IC50 in assay [2] is 3.6 µM.

`Cc1nc(C)c(-c2csc(Nc3cc(F)ccc3OC(C)C)n2)s1` [Example 13, (2′,4′-Dimethyl-[4,5′]bithiazolyl-2-yl)-(5-fluoro-2-isopropoxy-phenyl)-amine]: the Kd in assay [1], in assay [3] and in assay [4] was above 95 µM in each case. In addition, the IC50 in assay [2] was around 2 µM.

Consider `Cc1nc(C)c(-c2csc(Nc3ccccc3OC(F)(F)F)n2)s1` [Example 14, (2′,4′-Dimethyl-[4,5′]bithiazolyl-2-yl)-(2-trifluoromethoxy-phenyl)-amine], for which the Kd in assay [1] is above 95 µM; in assay [4] it was 9.12 µM. This compound returned an IC50 in assay [2] of 3.6 µM.

For `COc1ccc(F)cc1Nc1nc(-c2cccnc2)cs1` [Example 16, (5-Fluoro-2-methoxy-phenyl)-(4-pyridin-3-yl-thiazol-2-yl)-amine.HBr], the Kd is above 95 µM in assay [1], 8.9 µM in assay [3] and above 95 µM in assay [4]. Besides, the IC50 in assay [2] amounted to 3.6 µM.

`COc1ccc(Br)cc1Nc1nc(-c2sc(NC(C)=O)nc2C)cs1` [Example 21, N-[2-(5-Bromo-2-methoxy-phenylamino)-4′-methyl-[4,5′]bithiazolyl-2′-yl]-acetamide.HBr]: the dissociation constant (Kd) in assay [1] was 4.48 µM; in assay [3], 0.14 µM; in assay [4] it was 3.57 µM. The IC50 in assay [2] was found to be 2.8 µM.

As to `COc1ccccc1Nc1nc(-c2sc(NS(C)(=O)=O)nc2C)cs1` [Example 34, N-[2-(2-Methoxy-phenylamino)-4′-methyl-[4,5′]bithiazolyl-2′-yl]-methanesulfonamide], the Kd was 3.64 µM in assay [1], 0.82 µM in assay [3] and 43.5 µM in assay [4]. Also, the values for the IC50 in assay [5] and in assay [2] were 2.3 µM and 4 µM, respectively.

`COc1ccc(F)cc1Nc1nc(-c2c(C)nc(C)n2C)cs1` [Example 42, (5-Fluoro-2-methoxy-phenyl)-[4-(2,3,5-trimethyl-3H-imidazol-4-yl)-thiazol-2-yl]-amine]: the values for the Kd in assay [1] and in assay [4] were 28.8 µM and 5.35 µM, respectively. For the same compound, the IC50 in assay [2] was found to be 5 µM.

In the case of `COc1ccccc1Nc1nc(-c2sc(C)cc2C)cs1` [Example 45, [4-(3,5-Dimethyl-thiophen-2-yl)-thiazol-2-yl]-(2-methoxy-phenyl)-amine.TFA], the Kd was 1.65 µM in assay [1], 10 µM in assay [3] and above 95 µM in assay [4]. The IC50 in assay [5] is above 20 µM; in assay [2] it was above 50 µM.

In turn, `COc1ccccc1Nc1nc(-c2sc(NC(C)=O)nc2C)cs1` [Example 65, N-[2-(2-Methoxy-phenylamino)-4′-methyl-[4,5′]bithiazolyl-2′-yl]-acetamide] registered an equilibrium dissociation constant (Kd) in assay [4] of 37.5 µM. This compound had an IC50 in assay [6] above 50 µM.

With `COc1ccccc1Nc1nc(-c2sc(N)nc2C)cs1` [Example 68, N^2-(2-Methoxy-phenyl)-4′-methyl-[4,5′]bithiazolyl-2,2′-diamine], the dissociation constant Kd in assay [1] worked out at 3.76 µM; in assay [3] it was 1.12 µM; in assay [4], 14.5 µM. Further, the IC50 in assay [5] came to 3.1 µM; in assay [2] it was 2.5 µM.

With `Brc1ccc(Nc2nc(-c3cccnc3)cs2)cn1` [Example 70, (6-Bromo-pyridin-3-yl)-(4-pyridin-3-yl-thiazol-2-yl)-amine], the Kd came out at 5.79 µM in assay [1], 12 µM in assay [3] and 0.668 µM in assay [4]. For the same compound, in assay [2], the IC50 was above 20 µM.
